Each structure is given as a SMILES string.

Experiment [1] deals with T1, human A2A adenosine receptor (Homo sapiens, UniProt P29274).
T1 construct: expressed in transfected cells; host or cells: HEK293 or CHO cells
The experiment can be described thus: A2A binding affinity, Method (A): radioligand filtration binding with [3H]SCH58261. Particulars: membranes of HEK293 or CHO cells expressing the human receptor. From the text:
(§1) Method (A) describes the procedure used to measure A2A binding affinity using radioligand binding. Method (B) describes the procedure used to measure A2A binding affinity using SPA technology. The method used to measure A2B binding affinity is also described below. The method used to determine the A2A IC50 value reported for each compound in the table is indicated next to the reported value. The A2B IC50 value measured using the A2B binding affinity assay is shown in the table next to the compound under the corresponding A2A value.
The A2A receptor affinity binding assay measured the amount of binding of a tritiated ligand with high affinity for the A2A adenosine receptor to membranes made from HEK293 or CHO cells recombinantly expressing the human A2A adenosine receptor, in the presence of varying concentrations of a compound of the invention. The data were generated using either filtration binding or a homogenous scintillation proximity assay (SPA).
Method (A): Measurement of A2A Binding Affinity Using Radioligand Binding
148 µL (5 µg/mL) membranes (Perkin Elmer, Cat. No. RBHA2aM400UA) and 2 µL compounds of the invention to be tested (test compound) were transferred to individual wells of a 96-well polypropylene assay plate and incubated for 15 to 30 min at room temperature. [^3H] SCH58261 ((7-(2-phenylethyl)-5-amino-2-(2-furyl)-pyrazolo-[4,3-e]-1,2,4-triazolo[1,5-c]pyrimidine)) was diluted in assay buffer (50 mM Tris pH 7.4, 10 mM MgCl2, 0.005% Tween20) to a concentration of 4 nM and 50 µL transferred to each well of the assay plate. To define total and non-specific binding, wells containing 1% DMSO and 1 µM ZM241385 (Tocris Bioscience, Cat. No. 1036) respectively, were also included. The assay plate was incubated at room temperature for 60 min with agitation. Using a FilterMate Harvester® (Perkin Elmer), the contents of the assay plate were filtered through a UniFilter-96® PEI coated plate (Perkin Elmer Cat. No. 6005274 or 6005277). Filtering was achieved by aspirating the contents of the assay plate for 5 sec, then washing and aspirating the contents three times with ice-cooled wash buffer (50 mM Tris-HCl pH 7.4, 150 mM NaCl) and allowing the vacuum manifold to dry the plate for 30 sec. The filter plate was incubated for at least 1 h at 55° C. and allowed to dry. The bottom of the filter plate was sealed with backing tape. 40 µL Ultima Gold™ (Perkin Elmer, Cat. No. 6013329) was added to each well of the filter plate and the top of the plate was sealed with TopSeal-A PLUS® clear plate seal (Perkin Elmer, Cat. No. 6050185). The plate was incubated for at least 20 min, and then the amount of radioactivity remaining in each well was determined using a TopCount® (Perkin Elmer) scintillation counter. After normalization to total and non-specific binding, the percent effect at each compound concentration was calculated. The plot of percent effect versus the log of compound concentration was analyzed electronically using a 4-parameter logistic fit based on the Levenberg-Marquardt algorithm to generate IC50 values.

The target of experiment [2] is T2, human A2B adenosine receptor (Homo sapiens, UniProt P29275).
T2 construct: purchased Perkin Elmer ES-013-C; host or cells: HEK293 cells
T2 sequence (P29275 1-332): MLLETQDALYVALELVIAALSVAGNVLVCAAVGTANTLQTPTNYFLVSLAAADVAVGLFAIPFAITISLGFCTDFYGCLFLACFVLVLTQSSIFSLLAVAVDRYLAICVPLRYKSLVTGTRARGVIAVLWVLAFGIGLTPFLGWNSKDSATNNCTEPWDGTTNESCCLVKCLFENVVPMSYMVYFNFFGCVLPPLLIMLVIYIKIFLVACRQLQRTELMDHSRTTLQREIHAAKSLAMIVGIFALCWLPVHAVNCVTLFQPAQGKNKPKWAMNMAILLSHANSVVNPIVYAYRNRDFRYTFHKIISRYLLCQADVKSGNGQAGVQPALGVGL
Briefly: A2B binding affinity, radioligand filtration binding assay. Particulars: membranes of HEK293 cells expressing human A2B.
Excerpt: as §1
Measurement of A2B Binding Affinity
The reported affinity of the compounds of the invention for the human A2B adenosine receptor was determined experimentally using a radioligand filtration binding assay. This assay measures the amount of binding of a tritiated proprietary A2B receptor antagonist, in the presence and absence of a compound of the invention, to membranes made from HEK293 cells recombinantly expressing the human A2B adenosine receptor (Perkin Elmer, Cat. No. ES-013-C). […] 148 µL (135 µg/mL) membranes and 2 µL test compounds were transferred to individual wells of a 96-well polypropylene assay plate and incubated for 15 to 30 min at room temperature with agitation. Tritiated radioligand was diluted to a concentration of 14 nM in assay buffer (phosphate buffered saline without Magnesium and Calcium, pH 7.4; GE Healthcare Life Sciences, Cat. No. SH30256.01) and then 50 µL of the solution were transferred to each well of the assay plate. To define total and non-specific binding, wells containing 1% DMSO and 20 µM N-ethylcarboxamidoadenosine (Tocris Bioscience, Cat. No. 1691) respectively, were also included. The wells of the assay plate were incubated at room temperature for 60 min with agitation, then filtered using a FilterMate Harvester® (Perkin Elmer) or similar equipment through a UniFilter-96® PEI coated plate (Perkin Elmer Cat. No. 6005274 or 6005277). Filtering was achieved by aspirating the contents of the assay plate for 5 sec, then washing and aspirating the contents three times with ice-cooled wash buffer (assay buffer supplemented with 0.0025% Brij58) and allowing the vacuum manifold to dry the plate for 30 sec. The filter plate was incubated for at least 1 h at 55° C. and allowed to dry. The bottom of the filter plate was then sealed with backing tape. 40 µL Ultima Gold™ (Perkin Elmer, Cat. No. 6013329) was added to each well of the filter plate and the top of the plate was sealed with TopSeal-A PLUS® clear plate seal (Perkin Elmer, Cat. No. 6050185). The plates were then incubated for at least 20 min, and then the amount of radioactivity remaining in each well was determined using a TopCount® (Perkin Elmer) scintillation counter. After normalization to total and non-specific binding, the percent effect at each compound concentration was calculated. The plot of percent effect versus the log of compound concentration was analyzed electronically using a 4-parameter logistic fit based on the Levenberg-Marquardt algorithm to generate IC50 values.

T1 sequence (P29274 whole entry): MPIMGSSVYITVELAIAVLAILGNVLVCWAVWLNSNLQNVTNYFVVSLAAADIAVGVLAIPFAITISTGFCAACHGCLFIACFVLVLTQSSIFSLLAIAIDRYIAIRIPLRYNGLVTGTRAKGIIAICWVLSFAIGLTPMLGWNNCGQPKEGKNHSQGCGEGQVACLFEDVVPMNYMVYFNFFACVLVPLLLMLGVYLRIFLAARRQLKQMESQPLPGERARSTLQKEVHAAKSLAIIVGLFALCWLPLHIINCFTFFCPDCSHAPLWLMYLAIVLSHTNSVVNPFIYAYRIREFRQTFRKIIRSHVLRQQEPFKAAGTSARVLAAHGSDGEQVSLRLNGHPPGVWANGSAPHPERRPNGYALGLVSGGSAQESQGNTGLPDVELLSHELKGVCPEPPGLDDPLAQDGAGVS

As usually defined, the IC50 is the concentration that gives 50% inhibition. Consider `COc1cc(F)cc2c1nc(N)n1nc(CNCc3ccc(C(C)(O)C(F)(F)F)cc3)nc21` (single isomer, unassigned) [Example 11.8A, (S or R)-2-(4-((((5-amino-9-fluoro-7-methoxy-[1,2,4]triazolo[1,5-c]quinazolin-2-yl)methyl)amino)methyl)phenyl)-1,1,1-trifluoropropan-2-ol], for which the IC50 is 0.8 nM in experiment [1] and 11.3 nM in experiment [2] (value given with mark (A)).
For the compound `COc1cccc2c1nc(N)n1nc(CNCc3cnn(C)c3)nc21` [Example 11.3, 7-methoxy-2-((((1-methyl-1H-pyrazol-4-yl)methyl)amino)methyl)-[1,2,4]triazolo[1,5-c]quinazolin-5-amine], the IC50 in experiment [1] worked out at 0.1 nM; in experiment [2] (value printed with mark (B)), 1040 nM.
Turning to `COc1cc(F)cc2c1nc(N)n1nc(CNCc3ccc(C(O)C(F)(F)F)cc3)nc21` (single isomer, unassigned) [Example 11.7B, (R or S)-1-(4-((((5-amino-9-fluoro-7-methoxy-[1,2,4]triazolo[1,5-c]quinazolin-2-yl)methyl)amino)methyl)phenyl)-2,2,2-trifluoroethan-1-ol], the IC50 in experiment [1] was 0.5 nM; in experiment [2] (value given with mark (A)), 14.7 nM.
Taken in the same sequence, the figures for `COc1cc(F)cc2c1nc(N)n1nc(CNCc3ccc(C(C)(O)C(F)(F)F)cc3)nc21` (single isomer, unassigned) [Example 11.8B, (R or S)-2-(4-((((5-amino-9-fluoro-7-methoxy-[1,2,4]triazolo[1,5-c]quinazolin-2-yl)methyl)amino)methyl)phenyl)-1,1,1-trifluoropropan-2-ol] were 0.4 nM and 2.9 nM.
Taken in the same sequence, the figures for `COc1cc(F)cc2c1nc(N)n1nc(CNCc3ccc(S(N)(=O)=O)cc3)nc21` [Example 11.11, 4-((((5-amino-9-fluoro-7-methoxy-[1,2,4]triazolo[1,5-c]quinazolin-2-yl)methyl)amino)methyl)benzenesulfonamide] were 2.1 nM and 15.6 nM.
For `COc1cc(F)cc2c1nc(N)n1nc(CNCc3ccc(C(O)(C(F)(F)F)C(F)(F)F)cc3)nc21` [Example 11.5, 2-(4-((((5-amino-9-fluoro-7-methoxy-[1,2,4]triazolo[1,5-c]quinazolin-2-yl)methyl)amino)methyl)phenyl)-1,1,1,3,3,3-hexafluoropropan-2-ol], the IC50 in experiment [1] worked out at 0.2 nM; in experiment [2] (value given with mark (A)), 1 nM.

Values taken from US20230322785A1, “ADENOSINE A2A AND A2B RECEPTOR DUAL ANTAGONISTS FOR IMMUNO-ONCOLOGY” (Merck Sharp & Dohme LLC, priority 2020, published 2023).
